This note sets out measurements from patent publication US20100216767A1, “QUINAZOLINES FOR PDK1 INHIBITION” (priority 2006, published 2010).

SMILES strings stand for the structures.

This assay has as its target T1, PDK1 kinase (Homo sapiens, UniProt O15530).
T1 sequence (O15530 1-556): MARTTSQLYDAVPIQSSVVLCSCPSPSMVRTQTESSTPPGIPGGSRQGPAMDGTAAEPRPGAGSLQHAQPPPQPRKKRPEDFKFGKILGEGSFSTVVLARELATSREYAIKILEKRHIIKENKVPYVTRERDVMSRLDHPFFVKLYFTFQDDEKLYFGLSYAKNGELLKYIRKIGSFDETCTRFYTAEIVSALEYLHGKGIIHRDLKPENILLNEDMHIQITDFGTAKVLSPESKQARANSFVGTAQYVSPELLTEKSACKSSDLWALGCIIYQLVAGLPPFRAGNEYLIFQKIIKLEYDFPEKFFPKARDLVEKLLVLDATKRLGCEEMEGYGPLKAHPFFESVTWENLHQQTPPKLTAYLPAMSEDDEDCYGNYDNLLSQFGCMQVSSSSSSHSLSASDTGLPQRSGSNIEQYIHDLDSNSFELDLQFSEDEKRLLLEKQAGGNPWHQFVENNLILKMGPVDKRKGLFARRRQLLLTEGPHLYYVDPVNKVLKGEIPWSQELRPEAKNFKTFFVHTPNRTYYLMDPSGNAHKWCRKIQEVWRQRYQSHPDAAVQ
In words: PDK1 Kinase Alpha Screen Assay. It counts as biochemical. Particulars: Table 1; 10 μM ATP, 50 nM PDK1-4 peptide. As to the method:
Reagents/Concentrations: The PDK1-4 peptide substrate, biotin-[…]-NH2, (SEQ ID NO: 1), was purchased from the Tufts University Core Facility. The final concentration of PDK1-4 peptide substrate was 50 nM. The ATP substrate (adenosine-[…] triphosphate) was purchased from Roche Diagnostics. The final concentration of ATP substrate was 10 μM. Phospho-(Ser/Thr) PKA substrate antibody was purchased from Cell Signaling Technology. The final concentration of antibody was 0.3 mg/mL. The Alpha Screen Protein A detection kit containing donor and acceptor beads was purchased from PerkinElmer Life Sciences. The final concentration of both donor and acceptor beads was 25 μg/mL. Alpha Screen was used for detection. The biotinylated-PDK1-4 peptide was phosphorylated by PDK1 kinase using the ATP substrate. The biotinylated-PDK1-4 peptide substrate was bound to the streptavidin coated donor bead. The antibody was bound to the protein A coated acceptor bead. The antibody bound to the phosphorylated form of the biotinylated PDK-1 peptide substrate, bringing the donor and acceptor beads into close proximity. Laser irradiation of the donor bead at 680 nm generated a flow of short-lived singlet oxygen molecules. When the donor and acceptor beads were in close proximity, the reactive oxygen generated by the irradiation of the donor beads initiated a luminescence/fluorescence cascade in the acceptor beads. This process led to a highly amplified signal with output in the 530-620 nm range. Assays were carried out in 50 mM Tris, pH=7.5, 10 mM MgCl2, 0.1% BSA, 0.01% Tween-20, 2 mM dithiolthreitol, 2.5% dimethyl sulfoxide. Reactions were stopped by adding 50 mM Tris, pH=7.5, 90 mM EDTA, 0.1% BSA, 0.01% Tween-20.
Procedure: To 10 μl, of PDK1-4 peptide, […] of test compound in dimethyl sulfoxide was added. PDK1 kinase and ATP were mixed, and 10 μL of the PDK1 kinase/ATP mix was added to start the reaction. The reaction was allowed to proceed for 3-18 hours. The reactions were then stopped by adding 10 μL of the EDTA-containing stop buffer. Beads were mixed with antibody, and 25 μL of the bead/antibody mix was then added to the stopped reactions. Plates were incubated at room temperature overnight to allow for detection development before being read. The assay was run in a 384-well format plate.
As to `NS(=O)(=O)c1ccc(Nc2ncc3cc(-c4cccnc4F)ccc3n2)cc1` [Example 44, 4-(6-(2-fluoropyridin-3-yl)quinazolin-2-ylamino)-benzenesulfonamide], the IC50 is below 5 µM.
The value for `Cn1cc(-c2ccc3nc(Nc4ccc(S(N)(=O)=O)cc4)ncc3c2)cn1` [Example 56, 4-(6-(1-methyl-1H-pyrazol-4-yl)quinazolin-2-ylamino)benzene-sulfonamide] was below 5 µM.
The value for `NC(=O)c1ccc(Nc2ncc3cc(-c4nccs4)ccc3n2)cc1` [Example 75, 4-(6-(thiazol-2-yl)-quinazolin-2-ylamino)-benzamide] was below 5 µM; that for `COc1cc2nc(Nc3ccc(S(=O)(=O)N4CCOCC4)cc3)ncc2cc1Br` [Example 48, 6-bromo-7-methoxy-N-(4-(morpholinosulfonyl)phenyl)-quinazolin-2-amine] was below 5 µM; that for `C#Cc1ccc2nc(Nc3cc(-c4ccncc4F)cc(N4CCOCC4)c3)ncc2c1` [Example 160, 6-ethynyl-N-(3-(3-fluoro-pyridin-4-yl)-5-morpholinophenyl)-quinazolin-2-amine] was below 5 µM.
In the case of `NC(=O)c1cc(Nc2ncc3cc(Br)ccc3n2)ccc1N1CCOCC1` [Example 123, 5-(6-bromoquinazolin-2-ylamino)-2-morpholino-benzamide], the concentration for half-maximal inhibition (IC50) was in the range of 5 to 10 µM.
For the compound `C#Cc1cc2cnc(Nc3cc(OC)cc(-n4nnnc4C)c3)nc2cc1OC` [Example 172, 6-ethynyl-7-methoxy-N-(3-methoxy-5-(5-methyl-1H-tetrazol-1-yl)phenyl)-quinazolin-2-amine], the 50% inhibitory concentration (IC50) was in the range of 5 to 10 µM.
`CC(=O)Nc1cc(CN2CCOCC2)cc(Nc2ncc3cc(-c4cn[nH]c4)ccc3n2)c1` [Example 30, N-(3-(6-(1H-Pyrazol-4-yl)quinazolin-2-ylamino)-5-(morpholinomethyl)phenyl)acetamide] showed an IC50 below 5 µM.
Consider `NS(=O)(=O)c1ccc(Nc2ncc3cc(-c4cc[nH]n4)ccc3n2)cc1` [Example 67, 4-(6-(1H-pyrazol-3-yl)-quinazolin-2-ylamino)-benzenesulfonamide], for which the IC50 was below 5 µM.
The compound `COc1cc(-c2nccs2)c(Cl)c2cnc(Nc3ccc(N4CCOCC4)cc3)nc12` [Example 115, 5-chloro-8-methoxy-N-(4-morpholinophenyl)-6-(thiazol-2-yl)quinazolin-2-amine] had an IC50 below 5 µM.
Compound `C#Cc1ccc2nc(Nc3cc(CN4CCOCC4)cc(NS(C)(=O)=O)c3)ncc2c1F` [Example 162, N-(3-(6-ethynyl-5-fluoro-quinazolin-2-ylamino)-5-(morpholinomethyl)-phenyl)-methanesulfonamide] returned an IC50 below 5 µM.
The value for `C#Cc1ccc2nc(Nc3ccc(S(N)(=O)=O)cc3)ncc2c1` [Example 10, 4(6-Ethynylquinazolin-2-ylamino)benzenesulfonamide] was below 5 µM.
The value for `C#Cc1ccc2nc(Nc3ccc(C(N)=O)cc3)ncc2c1` [Example 58, 4-(6-ethynylquinazolin-2-ylamino)benzamide] was below 5 µM.
The result for `C#Cc1ccc2nc(Nc3cc(C#N)cc(CN4CCOCC4)c3)ncc2c1` [Example 152, 3-(6-ethynylquinazolin-2-ylamino)-5-(morpholino-methyl)benzonitrile] reads below 5 µM.
On to `COc1cc(C#N)cc2cnc(Nc3ccc(S(N)(=O)=O)cc3)nc12` [Example 4, 4-(6-cyano-8-methoxyquinazolin-2-ylamino)benzene-sulfonamide], for which the IC50 is below 5 µM.
Compound `CC(=O)Nc1cc(CN(C)C)cc(Nc2ncc3cc(Br)cc(F)c3n2)c1` [Example 135, N-(3-(6-Bromo-8-fluoroquinazolin-2-ylamino)-5-((dimethylamino)-methyl)phenyl)acetamide] had a half-maximal inhibitory concentration (IC50) below 5 µM.
Regarding `C#Cc1ccc2nc(Nc3cc(CN4CCOCC4)cc(NS(C)(=O)=O)c3)ncc2c1` [Example 143, N-(3-(6-ethynylquinazolin-2-ylamino)-5-(morpholino-methyl)phenyl)methane-sulfonamide], the IC50 was below 5 µM.
Compound `C#Cc1ccc2nc(Nc3cc(CN(C)C)cc(NC(C)=O)c3)ncc2c1` [Example 83, N-(3-((dimethylamino)-methyl)-5-(6-ethynyl-quinazolin-2-ylamino)-phenyl)acetamide] registered an IC50 below 5 µM.
The result for `C#Cc1cc(OC)c2nc(Nc3ccc(C(=O)NC(C)C)cc3)ncc2c1Cl` [Example 114, 4-(5-chloro-6-ethynyl-8-methoxyquinazolin-2-ylamino)-N-isopropyl-benzamide] reads below 5 µM; that for `CC(=O)Nc1cc(Nc2ncc3cc(Br)ccc3n2)cc(-c2cn[nH]c2)c1` [Example 153, N-(3-(6-bromoquinazolin-2-ylamino)-5-(1H-pyrazol-4-yl)phenyl)acetamide], below 5 µM.
`C#Cc1ccc2nc(Nc3cc(-c4ccncc4)cc(N4CCOCC4)c3)ncc2c1` [Example 157, 6-ethynyl-N-(3-morpholino-5-(pyridin-4-yl)phenyl)quinazolin-2-amine] returned an IC50 below 5 µM.
Regarding `COc1cc(-c2nccs2)c(Cl)c2cnc(Nc3ccc(C(=O)N4CCOCC4)cc3)nc12` [Example 117, (4-(5-chloro-8-methoxy-6-(thiazol-2-yl)quinazolin-2-ylamino)phenyl)-(morpholino)-methanone], the 50% inhibitory concentration (IC50) was below 5 µM.
`C#Cc1ccc2nc(Nc3ccc(N4CCOCC4)c(CN(C)C)c3)ncc2c1` [Example 82, N-(3-((dimethylamino)-methyl)-4-morpholino-phenyl)-6-ethynyl-quinazolin-2-amine] registered an IC50 below 5 µM.
`CC(=O)Nc1cc(CN(C)C)cc(Nc2ncc3cc(-c4cncnc4)ccc3n2)c1` [Example 92, N-(3-((dimethylamino)-methyl)-5-(6-(pyrimidin-5-yl)quinazolin-2-ylamino)-phenyl)acetamide] returned an IC50 below 5 µM.
Regarding `CC(=O)Nc1cc(CN2CCOCC2)cc(Nc2ncc3cc(Br)cc(Cl)c3n2)c1` [Example 128, N-(3-(6-bromo-8-chloro-quinazolin-2-ylamino)-5-(morpholinomethyl)-phenyl)-acetamide], the IC50 was below 5 µM.
The value for `C#Cc1ccc2nc(Nc3cc(CN)cc(NC(C)=O)c3)ncc2c1` [Example 137, N-(3-(aminomethyl)-5-(6-ethynylquinazolin-2-ylamino)phenyl)acetamide] was below 5 µM; that for `C#Cc1ccc2nc(Nc3cccc(CN(C)C)c3)ncc2c1` [Example 71, N-(3-((dimethylamino)-methyl)phenyl)-6-ethynylquinazolin-2-amine] was below 5 µM; that for `C#Cc1ccc2nc(Nc3cc(NC(C)=O)cc(-c4cccnc4)c3)ncc2c1` [Example 34, N-(3-(6-Ethynylyquinazolin-2-ylamino)-5-(pyridine-3-yl)phenyl)acetamide] was below 5 µM.
The result for `C#Cc1ccc2nc(Nc3ccc(C(=O)N4CCOCC4)cc3)ncc2c1` [Example 81, (4-(6-ethynylquinazolin-2-ylamino)phenyl)-(morpholino)methanone] reads below 5 µM; that for `C#Cc1cc(OC)c2nc(Nc3ccc(N4CCOCC4)cc3)ncc2c1` [Example 70, 6-ethynyl-8-methoxy-N-(4-morpholinophenyl)-quinazolin-2-amine], below 5 µM.
`C#Cc1cc2cnc(Nc3ccc(S(=O)(=O)N4CCOCC4)cc3)nc2cc1OC` [Example 50, 6-ethynyl-7-methoxy-N-(4-(morpholinosulfonyl)-phenyl)-quinazolin-2-amine] registered an IC50 below 5 µM.
Consider `C#Cc1ccc2nc(Nc3ccc(C(=O)N4CCOCC4)cc3)ncc2c1Cl` [Example 22, (4-(5-Chloro-6-ethynylquinazolin-2-ylamino)phenyl)(morpholino) methanone], for which the IC50 was below 5 µM.
The compound `C#Cc1cc2cnc(Nc3cc(CN(C)C)cc(NC(C)=O)c3)nc2cc1OC` [Example 85, N-(3-((dimethylamino)methyl)-5-(6-ethynyl-7-methoxy-quinazolin-2-ylamino)-phenyl)acetamide] gave an IC50 below 5 µM.
